Source: PubChem BioAssay (NCI)
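Test compounds were applied to cells in 96-well plates for 48 hours at 5 doses. The concentration for 50% growth inhibition is given as GI50. Definition used: TGI = concentration required for complete inhibition of growth.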

How the values were obtained:
Assay in all cases: NCI anticancer screen, dose series, 48 h
[1] = tested on: A498 renal
[2] = tested on: BT-549 breast
[3] = tested on: HCT-116 colon
[4] = tested on: K-562 leukemia
[5] = tested on: NCI-H522 lung
[6] = tested on: OVCAR-8 ovarian
[7] = tested on: SF-295 CNS
[8] = tested on: SK-OV-3 ovarian
[9] = tested on: SNB-19 CNS
[10] = tested on: T-47D breast

Compound | GI50 [1] | TGI [1] | GI50 [2] | TGI [2] | GI50 [3] | TGI [3] | GI50 [4] | TGI [4] | GI50 [5] | TGI [5] | GI50 [6] | TGI [6] | GI50 [7] | TGI [7] | GI50 [8] | TGI [8] | GI50 [9] | TGI [9] | GI50 [10] | TGI [10]
CC1(C)N=C(N)N=C(N)N1c1cccc(OCCOc2cccc([N+](=O)[O-])c2)c1 | > 67.7 µM | > 100 µM | 7.18 µM | > 100 µM | 0.777 µM | > 100 µM | 2.1 µM | > 100 µM | 1.19 µM | 62.5 µM | 38.6 µM | > 100 µM | 15 µM | > 100 µM | > 56.4 µM | > 100 µM | 4.88 µM | > 100 µM | 12.6 µM | > 100 µM
COc1cc2c3c(n(CCCN(C)CCO)c(=O)c2cc1OC)-c1cc2c(cc1C3=O)OCO2 | 8.19 µM | > 40.2 µM | 3.13 µM | > 22.3 µM | 1.9 µM | 30.7 µM | 0.439 µM | 54.7 µM | 2.16 µM | > 46 µM | 13.9 µM | > 78.8 µM | 0.672 µM | > 100 µM | 11 µM | > 100 µM | 8.32 µM | > 100 µM | 10.8 µM | > 100 µM
CC(Cl)CN1c2ccccc2Sc2ccc(Cl)cc21 (stereo not given) | – | > 10 µM | – | > 10 µM | – | > 10 µM | – | > 10 µM | – | > 10 µM | – | > 10 µM | – | > 10 µM | – | > 10 µM | – | > 10 µM | – | > 10 µM
CN1C(NNC(=O)c2cccnc2)=NS(=O)(=O)c2cc(Cl)ccc21 | > 100 µM | > 100 µM | > 100 µM | > 100 µM | > 100 µM | > 100 µM | > 100 µM | > 100 µM | > 100 µM | > 100 µM | > 100 µM | > 100 µM | > 100 µM | > 100 µM | > 100 µM | > 100 µM | > 100 µM | > 100 µM | > 100 µM | > 100 µM
N#CC(C#N)=C1CCCOc2c1ccc1ccccc21 | 1.84 µM | 4.89 µM | 98.8 µM | > 100 µM | > 100 µM | > 100 µM | 20.4 µM | 43.5 µM | > 100 µM | > 100 µM | > 100 µM | > 100 µM | > 100 µM | > 100 µM | > 100 µM | > 100 µM | 94.3 µM | > 100 µM | > 100 µM | > 100 µM
C=C(C)[C@@H]1CC[C@]2(C)[C@H](CC[C@@H]3[C@@H]([C@@](C)(O)CCC=C(C)C)CC[C@]32C)[C@@]1(C)CCC(=O)O | 29.5 µM | > 100 µM | 16.8 µM | 35.8 µM | 15.4 µM | 29.8 µM | 18.5 µM | 90.5 µM | 20.3 µM | 63.5 µM | 19 µM | 43 µM | 17.7 µM | 32.2 µM | 32.9 µM | > 100 µM | 18.8 µM | 34.9 µM | 21.5 µM | > 100 µM
C=CCn1c(SCC(=O)Nc2ccc(C(=O)/C=C/c3cc(OC)c(OC)c(OC)c3)cc2)nnc1-c1ccc(OC)cc1 | 1.5 µM | 2.91 µM | 0.209 µM | 0.546 µM | 0.223 µM | 0.52 µM | 0.363 µM | > 100 µM | 0.689 µM | 3.37 µM | 0.755 µM | 10 µM | 0.9 µM | 4.88 µM | 1.21 µM | 9.96 µM | 0.59 µM | 11.8 µM | 0.455 µM | 5.73 µM
Cn1c(=S)c2[nH]c(SCCCc3ccccc3)nc2n(C)c1=O | – | 49.1 µM | – | > 100 µM | – | > 100 µM | – | > 100 µM | – | > 100 µM | – | > 100 µM | – | 79.9 µM | – | > 100 µM | – | 53.6 µM | – | > 100 µM
COc1cc(OC)c2sc(-c3ccc(-n4cncc4-c4cc(OC)c(OC)c(OC)c4)cc3)nc2c1 | 1.83 µM | > 100 µM | 5.23 µM | > 100 µM | 3.92 µM | > 100 µM | 3.83 µM | > 100 µM | 3.27 µM | > 100 µM | > 100 µM | > 100 µM | 4.42 µM | > 100 µM | > 100 µM | > 100 µM | > 100 µM | > 100 µM | 3.35 µM | > 100 µM
